Columns and labels:
[1] = AUC in hairy mouse at 30 umol/kg, po; type: ADME, organism-based; settings: in vivo
[2] = Intrinsic clearance in human hepatocytes assessed per million cells; type: ADME, cell-based, Hepatocyte; settings: read-out: CLH
[3] = physchem; settings: buffer, pH 7.4
[4] = in vitro; settings: human, Caco-2
[5] = Oral bioavailability in hairy mouse blood at 30 umol/kg; type: ADME, organism-based
[6] = Volume of distribution at steady state in dog blood at 4 umol/kg, iv and 10 umol/kg, po; type: ADME, organism-based, Canis lupus familiaris; settings: read-out: Vdss
[7] = Clearance in hairy mouse blood at 5 umol/kg, iv and 30 umol/kg, po; type: ADME, organism-based
[8] = Oral bioavailability in dog blood at 10 umol/kg; type: ADME, organism-based, Canis lupus familiaris
[9] = Intrinsic clearance in dog hepatocytes assessed per million cells; type: ADME, cell-based, Canis lupus familiaris, Hepatocyte
[10] = Volume of distribution at steady state in hairy mouse blood at 5 umol/kg, iv and 30 umol/kg, po; type: ADME, organism-based; settings: read-out: Vdss
[11] = test system: Hepatocyte; test: Intrinsic clearance in mouse hepatocytes assessed per million cells; type: ADME, cell-based
[12] = Clearance in dog blood at 4 umol/kg, iv and 10 umol/kg, po; type: ADME, organism-based, Canis lupus familiaris

Row | SMILES | AUC [1] | hepatocyte CLint [2] | logD [3] | Papp A→B at 2 h, 10 µM [4] | other results
1 | CN(C)C(=O)c1cc(CN(C)c2cc(F)cc(F)c2)c2oc(N3CCOCC3)cc(=O)c2c1 | 4.9 µM·h | < 5 µL/min/1e6 cells |  |  | 
2 | CC(c1cc(C(=O)N(C)C)cc2c(=O)cc(N3CCOCC3)oc12)N1CCOc2c(F)cc(F)cc21 (configuration not stated) |  |  | 2 |  | 
3 | C[C@@H]1CN(c2cc(=O)c3cc(C(=O)N(C)C)cc(CN(C)c4cc(F)cc(F)c4)c3o2)CCO1 | 15.3 µM·h | 5 µL/min/1e6 cells | 2.7 | 55 ×10⁻⁶ cm/s | 
4 | CN(C)C(=O)c1cc(CN2CCOc3c(F)cc(F)cc32)c2oc(N3CCOCC3)cc(=O)c2c1 | 4.4 µM·h | 7 µL/min/1e6 cells | 2.1 | 9 ×10⁻⁶ cm/s | 
5 | C[C@@H]1CN(c2cc(=O)c3cc(C(=O)N(C)C)cc(CN4CCOc5c(F)cc(F)cc54)c3o2)CCO1 |  | 8 µL/min/1e6 cells | 2.3 | 25 ×10⁻⁶ cm/s | 
6 | CN(C)C(=O)c1cc(CN(CCC#N)c2cc(F)cc(F)c2)c2oc(N3CCOCC3)cc(=O)c2c1 |  | < 3 µL/min/1e6 cells | 1.8 |  | 
7 | C[C@@H]1CN(c2cc(=O)c3cc(C(=O)N(C)C)cc(CN4CCOc5c(F)cccc54)c3o2)CCO1 | 7.3 µM·h | < 3 µL/min/1e6 cells | 2 | 28 ×10⁻⁶ cm/s | 
8 | C[C@@H]1CN(c2cc(=O)c3cc(C(=O)N4CCOCC4)cc(CN4CCOc5c(F)cccc54)c3o2)CCO1 | 1 µM·h | < 3 µL/min/1e6 cells |  |  | 
9 | CN(C)C(=O)c1cc(CN2CCOc3ccc(F)cc32)c2oc(N3CCOCC3)cc(=O)c2c1 |  | 12 µL/min/1e6 cells | 1.9 |  | 
10 | C[C@@H]1CN(c2cc(=O)c3cc(C(=O)N4CCOCC4)cc(CN4CCOc5ccc(F)cc54)c3o2)CCO1 | 2.8 µM·h | 4 µL/min/1e6 cells | 2 | 11 ×10⁻⁶ cm/s | 
11 | C[C@@H]1CN(c2cc(=O)c3cc(C(=O)N(C)C)cc(CN4CCOc5ccc(F)cc54)c3o2)CCO1 |  | 15 µL/min/1e6 cells | 2.3 |  | 
12 | CN(C)C(=O)c1cc(CN(CC#N)c2cc(F)cc(F)c2)c2oc(N3CCOCC3)cc(=O)c2c1 |  | < 3 µL/min/1e6 cells | 1.5 |  | 
13 | C[C@@H]1CN(c2cc(=O)c3cc(C(=O)N4CCOCC4)cc(CN4CCOc5c(F)cc(F)cc54)c3o2)CCO1 |  | < 3 µL/min/1e6 cells |  |  | 
14 | CN(C)C(=O)c1cc(CN2CCOc3c(F)cccc32)c2oc(N3CCOCC3)cc(=O)c2c1 | 3.9 µM·h | < 1 µL/min/1e6 cells | 1.7 | 6.5 ×10⁻⁶ cm/s | bioavailability [5]: 47%; Vd [6]: 1.6 L/kg; clearance [7]: 49 mL/min/kg; bioavailability [8]: 63%; hepatocyte CLint [9]: 4 µL/min/1e6 cells; Vd [10]: 1.9 L/kg; hepatocyte CLint [11]: 21 µL/min/1e6 cells; clearance [12]: 13 mL/min/kg
15 | COCCN(Cc1cc(C(=O)N(C)C)cc2c(=O)cc(N3CCO[C@H](C)C3)oc12)c1cc(F)cc(F)c1 |  | 14 µL/min/1e6 cells | 2.2 | 14 ×10⁻⁶ cm/s | 
16 | COCCN(Cc1cc(C(=O)N(C)C)cc2c(=O)cc(N3CCOCC3)oc12)c1cc(F)cc(F)c1 | 2.4 µM·h | 8 µL/min/1e6 cells | 2.1 | 11 ×10⁻⁶ cm/s | 
